Tested on: patients with type 1 or type 2 diabetes mellitus and moderately severe to very severe NPDR
Assay: Clinical Study MBCM(b): Phase 3, randomized, double-masked, placebo-controlled study; frequency of sustained moderate visual loss (SMVL)
Assay type: in vivo, humans
Conditions: 32 mg/d orally, SMVL = ≧15 letters loss in best-corrected ETDRS visual acuity for 6-month period (30 to 36 months)
Excerpt: MBCM(b) is a Phase 3, multicenter, parallel, randomized, double-masked, placebo-controlled study. Language from the MBCM(b) protocol is included below.
Patients with type 1 or type 2 diabetes mellitus and an Early Treatment Diabetic Retinopathy Study (ETDRS) retinopathy level ≧47A and ≦53E in at least one eye will be eligible to participate in the study. Visual acuity (best-corrected) will be assessed using the ETDRS visual acuity protocol. Retinopathy will be assessed using ETDRS 7 standard field 30 degree color stereoscopic fundus photography. The photographs will be independently assessed by the University of Wisconsin Fundus Photograph Reading Center.
Seventy sites have enrolled patients over a 15-month period. Of the 685 patients enrolled, it is expected that approximately 580 patients will complete the study. […]
Patients may be included in the study only if they meet all of the following general criteria and have at least one eye that meets all of the eye-specific criteria: • [1] […] ETDRS retinopathy level ≧47A and ≦53E without previous panretinal photocoagulation as determined using ETDRS 7 standard field 30-degree color stereoscopic fundus photography. • [3] […] Best-corrected visual acuity score of 45 or more letters as measured using the ETDRS visual acuity protocol (ETDRS Study report number 1, Arch. Opthalmol., 103:1796-1806, 1985) in an eye that has level ≧47A and ≦53E retinopathy. […]

CN(C)C[C@@H]1CCn2cc(c3ccccc32)C2=C(C(=O)NC2=O)c2cn(c3ccccc23)CCO1 [RBX, (S)-9-((dimethylamino)methyl)-6,7,10,11-tetrahydro-9H,18H-5,21:12,17-dimethenodibenzo(e,k)pyrrolo(3,4-h)(1,4,13)oxadiazacyclohexadecine-18,20(19H)-dione]
% Of Patients with SMVL, Focal PC (patients with focal photocoagulation): 8.6%
% Of Patients with SMVL, No Focal PC (patients without focal photocoagulation): 2.7%

— patent publication US20080234351A1, “Combination Methods for Preserving Visual Acuity” (priority 2005, published 2008)
